These results are taken from paper PMC4648050, “Discovery of Inhibitors of Trypanosoma brucei by Phenotypic Screening of a Focused Protein Kinase Library” (Chemmedchem, 2015).

In one data set the target is T1, PKC zeta (Homo sapiens, UniProt Q05513).
T1 sequence (Q05513 1-592): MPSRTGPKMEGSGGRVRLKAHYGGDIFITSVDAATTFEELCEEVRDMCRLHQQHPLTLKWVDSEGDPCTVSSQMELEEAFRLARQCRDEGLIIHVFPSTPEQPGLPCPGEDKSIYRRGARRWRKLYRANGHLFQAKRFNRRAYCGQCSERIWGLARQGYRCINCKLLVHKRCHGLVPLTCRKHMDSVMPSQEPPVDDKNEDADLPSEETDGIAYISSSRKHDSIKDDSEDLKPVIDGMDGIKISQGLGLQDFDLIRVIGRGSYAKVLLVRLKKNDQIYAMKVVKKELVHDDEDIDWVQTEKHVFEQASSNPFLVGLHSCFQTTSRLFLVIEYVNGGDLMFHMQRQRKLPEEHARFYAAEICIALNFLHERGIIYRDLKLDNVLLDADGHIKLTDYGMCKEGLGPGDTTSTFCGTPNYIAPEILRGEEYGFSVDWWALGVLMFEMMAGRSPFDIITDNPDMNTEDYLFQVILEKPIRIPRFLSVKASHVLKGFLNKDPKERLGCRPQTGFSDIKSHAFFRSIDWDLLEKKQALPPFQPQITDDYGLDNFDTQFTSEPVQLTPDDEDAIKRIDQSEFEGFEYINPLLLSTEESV
In words: Kinase panel: PKC zeta. In kind it is biochemical, human/mammalian. Particulars: compound at 10 μM, read-out: % of activity respect of the control. How it is done:
(§1) The DDU kinase-focused compound set contains lead-like scaffolds that are designed to target protein kinases; they have kinase hinge binding motifs. Four of the 1H-imidazopyrazinones were screened against a human/mammalian kinase panel at the University of Dundee (http://www.kinase-screen.mrc.ac.uk) at a concentration of 10 μM. At the time of testing the panel contained 79 mammalian kinases selected to provide a broad coverage of the mammalian kinome (∼500 kinases in the human genome).[3] None of the compounds were active against any of the kinases at 10 μM.

The target in another data set is MARK3 (Homo sapiens, UniProt P27448). The data set can be described thus: Kinase panel: MARK3. In kind it is biochemical, human/mammalian. Particulars: compound at 10 μM, read-out: % of activity respect of the control. The protocol: as §1
Sequence of MARK3 (P27448 whole entry): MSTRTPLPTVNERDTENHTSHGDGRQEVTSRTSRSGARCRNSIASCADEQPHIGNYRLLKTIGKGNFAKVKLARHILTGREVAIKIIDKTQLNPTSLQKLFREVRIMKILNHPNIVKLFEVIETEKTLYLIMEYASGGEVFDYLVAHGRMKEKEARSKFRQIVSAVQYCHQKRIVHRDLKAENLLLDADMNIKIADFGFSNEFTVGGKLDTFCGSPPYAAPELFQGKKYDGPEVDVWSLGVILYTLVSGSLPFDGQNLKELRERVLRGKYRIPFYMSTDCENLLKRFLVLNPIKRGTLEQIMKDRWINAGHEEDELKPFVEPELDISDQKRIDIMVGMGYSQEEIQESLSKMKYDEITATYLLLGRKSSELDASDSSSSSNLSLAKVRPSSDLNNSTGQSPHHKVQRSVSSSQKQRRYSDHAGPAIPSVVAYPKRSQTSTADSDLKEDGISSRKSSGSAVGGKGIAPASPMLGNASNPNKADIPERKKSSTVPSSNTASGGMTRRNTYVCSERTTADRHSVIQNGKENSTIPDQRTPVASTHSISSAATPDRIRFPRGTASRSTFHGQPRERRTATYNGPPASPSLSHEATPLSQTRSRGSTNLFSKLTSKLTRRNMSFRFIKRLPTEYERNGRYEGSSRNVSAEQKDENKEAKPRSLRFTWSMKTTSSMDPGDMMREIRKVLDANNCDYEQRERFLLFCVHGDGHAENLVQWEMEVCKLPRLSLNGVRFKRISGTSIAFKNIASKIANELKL
Another data set concerns T. b. brucei. In words: Trypanosome proliferation assay. It counts as cell-based, Trypanosoma brucei brucei. Conditions: geometric mean of two or more determinations, standard cell viability (resazurin) assay, read-out: EC50 T. b. brucei. In outline: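 Bloodstream-stage T. brucei or MRC5 cells (MRC5 in MEM + 10% FBS), 2×10^3 per well, exposed to compounds ([…] to 0.5 nM) for 69 h at 37 °C, 5% CO2. Viability read by fluorescence after a further 4 h with 50 μM resazurin.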

In the next data set the target is BTK (Homo sapiens, UniProt Q06187). In words: Kinase panel: BTK. In kind it is biochemical, human/mammalian. Particulars: compound at 10 μM, read-out: % of activity respect of the control. How it is done:
as §1

The next data set deals with S6K1 (Homo sapiens, UniProt P23443). The data set can be described thus: Kinase panel: S6K1. Particulars: compound at 10 μM, read-out: % of activity respect of the control. It counts as biochemical, human/mammalian. The protocol: as §1
Sequence of S6K1 (P23443 whole entry): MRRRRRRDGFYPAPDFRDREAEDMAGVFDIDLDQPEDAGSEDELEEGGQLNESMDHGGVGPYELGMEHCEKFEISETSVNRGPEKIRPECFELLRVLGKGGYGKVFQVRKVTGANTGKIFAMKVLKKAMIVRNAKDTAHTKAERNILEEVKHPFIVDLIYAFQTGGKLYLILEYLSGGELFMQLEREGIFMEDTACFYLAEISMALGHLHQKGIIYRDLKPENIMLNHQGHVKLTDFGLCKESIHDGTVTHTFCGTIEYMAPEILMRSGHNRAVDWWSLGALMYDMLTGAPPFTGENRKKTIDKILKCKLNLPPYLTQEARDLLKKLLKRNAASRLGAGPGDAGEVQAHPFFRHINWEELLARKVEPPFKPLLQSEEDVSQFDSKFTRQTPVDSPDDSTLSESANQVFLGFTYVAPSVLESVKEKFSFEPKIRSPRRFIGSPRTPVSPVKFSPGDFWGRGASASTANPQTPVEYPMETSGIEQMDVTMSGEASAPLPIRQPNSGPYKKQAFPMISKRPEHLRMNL
Data set [1] is described as follows: Kinetic aqueous solubility (laser nephelometry). Conditions: Milli-Q water with 2.5% DMSO, kinetic from dmso stock, range 250–12 μM, read-out: Aq. Sol. (aqueous kinetic solubility). In kind it is physicochemical. How it is done:
Solubility experiments: The kinetic aqueous solubility of the test compounds was measured using laser nephelometry. Compounds were subject to serial dilution from 10 mM to 0.5 mM in DMSO. An aliquot was then mixed with Milli-Q H2O to obtain an aqueous dilution plate with a final concentration range of 250–12 μM, with a final DMSO concentration of 2.5 %. Triplicate aliquots were transferred to a flat-bottomed polystyrene plate which was immediately read on the NEPHELOstar (BMG Lab Technologies). The amount of laser scatter caused by insoluble particulates (relative nephelometry units, RNU) was plotted against compound concentration using a segmental regression fit, with the point of inflection being quoted as the compounds′ aqueous solubility (in μM).

The next data set concerns the target MST4 (Homo sapiens, UniProt Q9P289). In words: Kinase panel: MST4. In kind it is biochemical, human/mammalian. Conditions: compound at 10 μM, read-out: % of activity respect of the control. The protocol:
as §1

A further data set has as its target T2, ERK8 (Homo sapiens, UniProt Q8TD08).
T2 sequence (Q8TD08 1-544): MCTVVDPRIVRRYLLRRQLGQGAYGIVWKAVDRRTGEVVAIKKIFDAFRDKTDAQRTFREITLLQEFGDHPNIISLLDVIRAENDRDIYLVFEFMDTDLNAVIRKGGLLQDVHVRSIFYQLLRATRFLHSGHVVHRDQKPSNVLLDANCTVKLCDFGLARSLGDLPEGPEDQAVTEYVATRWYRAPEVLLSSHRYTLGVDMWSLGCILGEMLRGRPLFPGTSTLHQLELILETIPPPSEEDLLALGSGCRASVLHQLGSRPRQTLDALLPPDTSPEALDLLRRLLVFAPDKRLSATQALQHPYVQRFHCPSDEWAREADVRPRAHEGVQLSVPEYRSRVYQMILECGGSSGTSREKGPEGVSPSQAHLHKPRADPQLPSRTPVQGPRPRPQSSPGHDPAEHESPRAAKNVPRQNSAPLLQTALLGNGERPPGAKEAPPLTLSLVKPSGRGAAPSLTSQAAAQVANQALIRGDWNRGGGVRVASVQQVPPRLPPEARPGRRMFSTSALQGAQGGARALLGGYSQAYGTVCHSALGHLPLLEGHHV
The data set can be described thus: Kinase panel: ERK8. It counts as biochemical, human/mammalian. Conditions: compound at 10 μM, read-out: % of activity respect of the control. The protocol: as §1

The target of another data set is ERK1 (Homo sapiens, UniProt P27361). In words: Kinase panel: ERK1. It counts as biochemical, human/mammalian. Particulars: compound at 10 μM, read-out: % of activity respect of the control. The protocol:
as §1

The target of another data set is T3, p38g MAPK (Homo sapiens, UniProt P53778).
T3 sequence (P53778 1-367): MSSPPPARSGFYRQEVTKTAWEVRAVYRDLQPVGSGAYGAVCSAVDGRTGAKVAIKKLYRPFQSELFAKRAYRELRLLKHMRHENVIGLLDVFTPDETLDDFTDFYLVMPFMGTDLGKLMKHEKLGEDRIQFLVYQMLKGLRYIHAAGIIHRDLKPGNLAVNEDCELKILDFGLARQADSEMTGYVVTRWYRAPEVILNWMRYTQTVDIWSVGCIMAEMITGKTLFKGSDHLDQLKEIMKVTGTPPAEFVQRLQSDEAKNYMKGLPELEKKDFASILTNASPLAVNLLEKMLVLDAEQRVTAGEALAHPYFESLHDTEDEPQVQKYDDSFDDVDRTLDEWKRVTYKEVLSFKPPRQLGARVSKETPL
In words: Kinase panel: p38g MAPK. In kind it is biochemical, human/mammalian. Particulars: compound at 10 μM, read-out: % of activity respect of the control. How it is done: as §1

pEC50: −log10 of the molar value. Values after ≈ are worked out from the molar mass of the structure shown. Like-named read-outs stand apart in the source and are kept apart here. A value given as a limit tells only on which side of the number the result lay.

Sequence of ERK1 (P27361 whole entry): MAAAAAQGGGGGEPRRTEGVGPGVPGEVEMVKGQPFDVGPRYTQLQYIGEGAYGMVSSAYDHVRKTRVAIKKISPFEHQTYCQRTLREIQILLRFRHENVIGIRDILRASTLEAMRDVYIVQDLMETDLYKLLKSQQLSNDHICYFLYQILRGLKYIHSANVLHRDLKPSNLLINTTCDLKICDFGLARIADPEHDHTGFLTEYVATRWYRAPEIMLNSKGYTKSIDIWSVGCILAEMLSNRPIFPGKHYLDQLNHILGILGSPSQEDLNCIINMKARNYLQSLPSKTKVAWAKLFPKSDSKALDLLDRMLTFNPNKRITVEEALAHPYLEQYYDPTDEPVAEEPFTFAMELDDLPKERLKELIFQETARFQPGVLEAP
Sequence of BTK (Q06187 whole entry): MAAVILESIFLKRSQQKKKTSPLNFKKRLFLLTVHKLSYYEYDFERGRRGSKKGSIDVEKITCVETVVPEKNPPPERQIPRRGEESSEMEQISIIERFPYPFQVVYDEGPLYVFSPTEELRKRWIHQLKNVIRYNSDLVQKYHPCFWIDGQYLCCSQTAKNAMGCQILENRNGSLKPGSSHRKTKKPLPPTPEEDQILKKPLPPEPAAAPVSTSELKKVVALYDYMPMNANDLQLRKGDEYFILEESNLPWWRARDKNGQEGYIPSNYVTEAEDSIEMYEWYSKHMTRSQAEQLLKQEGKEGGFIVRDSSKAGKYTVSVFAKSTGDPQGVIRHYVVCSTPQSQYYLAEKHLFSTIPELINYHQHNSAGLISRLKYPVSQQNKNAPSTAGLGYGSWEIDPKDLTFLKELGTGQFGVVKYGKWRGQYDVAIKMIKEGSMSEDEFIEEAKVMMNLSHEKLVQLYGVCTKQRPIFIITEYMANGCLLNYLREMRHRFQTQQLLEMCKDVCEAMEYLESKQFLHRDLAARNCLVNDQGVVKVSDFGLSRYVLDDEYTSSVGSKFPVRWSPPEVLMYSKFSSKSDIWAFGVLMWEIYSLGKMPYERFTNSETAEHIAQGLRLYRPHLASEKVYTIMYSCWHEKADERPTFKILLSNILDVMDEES
Sequence of MST4 (Q9P289 whole entry): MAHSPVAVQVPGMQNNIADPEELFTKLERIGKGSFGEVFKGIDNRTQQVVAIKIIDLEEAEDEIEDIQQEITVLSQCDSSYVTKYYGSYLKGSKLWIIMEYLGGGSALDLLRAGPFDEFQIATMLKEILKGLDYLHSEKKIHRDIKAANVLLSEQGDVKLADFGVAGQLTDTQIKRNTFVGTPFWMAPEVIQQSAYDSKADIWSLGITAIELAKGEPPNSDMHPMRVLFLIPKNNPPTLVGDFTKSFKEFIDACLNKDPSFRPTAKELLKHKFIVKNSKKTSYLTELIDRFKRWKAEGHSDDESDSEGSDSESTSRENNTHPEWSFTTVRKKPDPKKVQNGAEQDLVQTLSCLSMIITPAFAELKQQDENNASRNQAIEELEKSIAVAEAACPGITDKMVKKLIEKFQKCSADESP

Consider `CC(c1ccccc1)n1c(=O)[nH]c2ncc(-c3ccc(F)cc3)nc21` (stereo not drawn) [Compound 1], for which the remaining activity at 10 µM worked out at 94% on PKC zeta; 110% on MARK3; 113% at BTK; 81% at S6K1; 90% on MST4; 73% at ERK8. Besides, the remaining activity at 10 µM at ERK1 was found to be 153%; at p38g MAPK, 98%. Also, the pEC50 in the data set on T. b. brucei (Trypanosoma brucei) is 7.10. The kinetic solubility in data set [1] was less than 12 µM.
Regarding `O=c1[nH]c2ncc(-c3ccc(F)cc3)nc2n1CC1CC1` [Compound 10], the remaining activity at 10 µM at PKC zeta stood at 90%; at MARK3 it was 97%; on BTK, 104%; on S6K1, 92%; on MST4, 92%; on ERK8, 70%. Besides, the remaining activity at 10 µM on ERK1 was 112%; on p38g MAPK, 94%. Also, the pEC50 in the data set on T. b. brucei (Trypanosoma brucei) is 6.52.
Turning to `O=c1[nH]c2ncc(-c3ccc(F)cc3)nc2n1C1CCCCC1` [Compound 12, 1-Cyclohexyl-6-(4-fluorophenyl)-1H-imidazo[4,5-b]pyrazin-2(3H)-one], the remaining activity at 10 µM on PKC zeta came to 90%; at MARK3, 98%; at BTK it was 111%; on S6K1 it was 97%; at MST4 it was 100%; at ERK8, 80%. The remaining activity at 10 µM was determined as 115% on ERK1 and 98% on p38g MAPK. For the same compound, in the data set on T. b. brucei (Trypanosoma brucei), the pEC50 was 7.52. Further, the solubility (kinetic) in data set [1] stood at 55 µM (≈ 17.2 µg/mL).
With `C[C@H](c1ccccc1)n1c(=O)[nH]c2ncc(-c3ccccc3)nc21` [Compound 14, (R)-6-Phenyl-1-(1-phenylethyl)-1H-imidazo[4,5-b]pyrazin-2(3H)-one], the remaining activity at 10 µM turned out to be 88% on PKC zeta; 100% on MARK3; 97% on BTK; 65% on S6K1; 88% at MST4; 79% at ERK8. For the same compound, the remaining activity at 10 µM at ERK1 amounted to 105%; on p38g MAPK, 91%. Also, the pEC50 in the data set on T. b. brucei (Trypanosoma brucei) is 7.00. Also, the solubility (kinetic) in [1] was less than 12 µM.
Consider `O=c1[nH]c2ncc(-c3ccccc3CO)nc2n1C1CCCCC1` [Compound 28], for which the figures for the pEC50 in the data set on T. b. brucei (Trypanosoma brucei) and with T. b. brucei were 7.30 and 7.34, respectively. Also, in data set [1], the kinetic solubility is more than 250 µM.
